# Test results: ChEMBL document CHEMBL1123824 (J Med Chem, 1987)
# Where a SMILES comes first, the peptide text is derived from it. The star is where a group is joined. X1 = CCCN1C(=O)C2NC(c3ccc(OCC(=O)NCCNC(=O)C(N)CC(=O)*)cc3)=NC2N(CCC)C1=O; X2 = O=C(Cc1ccc(Nc2ncnc3c2ncn3[C@@H]2O[C@H](CO)[C@@H](O)[C@H]2O)cc1)*
# Legend:
# [1] = target: Substance-P receptor (Rattus norvegicus, UniProt P14600); assay: Ability to inhibit the binding of [125I]physalaemin to the SP receptors in rat telencephalon slices
# Sequence of Substance-P receptor (P14600 whole entry): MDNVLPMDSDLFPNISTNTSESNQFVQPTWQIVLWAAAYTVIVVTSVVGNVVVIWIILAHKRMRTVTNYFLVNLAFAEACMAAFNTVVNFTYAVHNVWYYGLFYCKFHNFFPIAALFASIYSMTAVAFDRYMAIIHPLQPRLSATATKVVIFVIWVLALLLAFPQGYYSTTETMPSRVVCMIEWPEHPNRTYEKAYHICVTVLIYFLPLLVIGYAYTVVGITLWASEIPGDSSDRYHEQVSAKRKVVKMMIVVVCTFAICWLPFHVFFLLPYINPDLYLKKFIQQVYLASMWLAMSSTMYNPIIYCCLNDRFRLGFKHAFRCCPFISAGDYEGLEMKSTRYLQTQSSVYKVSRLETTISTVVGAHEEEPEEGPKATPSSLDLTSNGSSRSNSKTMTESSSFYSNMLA
# [2] = target: Adenosine receptor (Rattus norvegicus, UniProt P29276+P25099+P30543+P28647); assay: Ability to inhibit the binding of [3H]N6-phenylisopropyl adenosine to adenosine receptor in rat cerebral cortex membranes; format: cell membranes, Membrane
Compound,Ki [1],Ki [2]
CSCC[C@H](NC(=O)[C@H](CC(C)C)NC(=O)CNC(=O)[C@H](Cc1ccccc1)NC(=O)[C@H](Cc1ccccc1)NC(C)=O)C(N)=O,> 10000 nM,–
CSCC[C@@H](NC(=O)[C@H](CC(C)C)NC(=O)CNC(=O)[C@H](Cc1ccccc1)NC(=O)[C@H](Cc1ccccc1)NC(C)=O)C(N)=O,–,> 30000 nM
CSCC[C@H](NC(=O)[C@H](CC(C)C)NC(=O)CNC(=O)[C@H](Cc1ccccc1)NC(=O)[C@@H](N)Cc1ccccc1)C(N)=O,> 10000 nM,–
CSCC[C@@H](NC(=O)[C@H](CC(C)C)NC(=O)CNC(=O)[C@H](Cc1ccccc1)NC(=O)[C@@H](N)Cc1ccccc1)C(N)=O,–,> 30000 nM
CCCN1C(=O)C2NC(c3ccc(OCC(=O)NCCNC(=O)C(N)CC(=O)N[C@@H](Cc4ccccc4)C(=O)N[C@@H](Cc4ccccc4)C(=O)NCC(N)=O)cc3)=NC2N(CCC)C1=O (stereo not given in full),> 10000 nM,30 nM
CCCN1C(=O)C2NC(c3ccc(OCC(=O)NCCNC(=O)CN)cc3)=NC2N(CCC)C1=O (stereo not given),> 10000 nM,2.1 nM
CCCN1C(=O)C2NC(c3ccc(OCC(=O)NCCNC(=O)C(N)CC(N)=O)cc3)=NC2N(CCC)C1=O (stereo not given),–,4.3 nM
CCCN1C(=O)C2NC(c3ccc(OCC(=O)NCCN)cc3)=NC2N(CCC)C1=O (stereo not given),> 10000 nM,1.2 nM
O=C(O)Cc1ccc(Nc2ncnc3c2ncn3C2O[C@H](CO)[C@@H](O)[C@H]2O)cc1 (stereo not given in full),–,210 nM
CNC(=O)Cc1ccc(Nc2ncnc3c2ncn3C2O[C@H](CO)[C@@H](O)[C@H]2O)cc1 (stereo not given in full),> 10000 nM,–
CCCN1C(=O)C2NC(c3ccc(OCC(=O)NCCNC(=O)C(N)CC(=O)N[C@@H](Cc4ccccc4)C(=O)N[C@@H](Cc4ccccc4)C(=O)NCC(=O)N[C@@H](CC(C)C)C(=O)N[C@@H](CCSC)C(N)=O)cc3)=NC2N(CCC)C1=O (stereo not given in full) (X1-FFGLM-NH2),300 nM,35 nM
CSCC[C@H](NC(=O)[C@H](CC(C)C)NC(=O)CNC(=O)[C@H](Cc1ccccc1)NC(=O)[C@H](Cc1ccccc1)NC(=O)Cc1ccc(Nc2ncnc3c2ncn3[C@@H]2O[C@H](CO)[C@@H](O)[C@H]2O)cc1)C(N)=O (X2-FFGLM-NH2),2000 nM,16 nM
CSCC[C@H](NC(=O)[C@H](CC(C)C)NC(=O)CNC(=O)[C@H](Cc1ccccc1)NC(=O)[C@H](Cc1ccccc1)NC(=O)[C@H](CCC(N)=O)NC(=O)[C@H](CCC(N)=O)NC(=O)[C@@H]1CCCN1C(=O)[C@H](CCCCN)NC(=O)[C@@H]1CCCN1C(=O)[C@@H](N)CCCN=C(N)N)C(N)=O [SUBSTANCE P],–,> 30000 nM
H-QFFGLM-NH2,450 nM,–
H-QQFFGLM-NH2,180 nM,–
